Laboratory results published in US20140086890A1, “COMPOSITIONS AND METHODS FOR TREATING HYPERPROLIFERATIVE DISORDERS” (priority 2004, published 2014).

Legend:
[1] = system: RENCA tumor cells; experiment: NK cell susceptibility assay of pre-sensitized RENCA tumor cells; assay type: cell-based, murine; details: for NK cell susceptibility of RENCA (FIG. 8): 14 hours, 10 nM Velcade or 25 ng/ml Depsipeptide, autologous Balb/c NK cells, 4 hour assay; for susceptibility of RENCA tumor cells to NK cell mediated lysis (FIG. 7): pretreated 40 hours, Depsipeptide 25 ng/ml or Velcade 10 nM, NK cells from B10.d2 mouse
Method: (§1) Thereafter, the tumor cells were tested for NK cell susceptibility in a standard cytotoxicity assay. NK cells were purified from splenocytes from a B 10.d2 mouse by negative magnetic bead depletion of T cells, B cells, monocytes and granulocytes. NK cell purity was evaluated by DX5 and CD3 staining by flow cytometry. Purity of NK cells was always between 90-100%.
Cells were thereafter labeled with ^51Cr for 1 hour and tested for susceptibility to NK cell mediated lysis in a standard 4 hour assay. Murine autologous Balb/c NK cells tested against untreated (squares), Velcade (circles) or Depsipeptide (triangles) treated RENCA cell lines (Balb/c in origin).

[2] = system: MHC class I; experiment: MHC class I expression by flow cytometry; assay type: cell-based, human and murine; details: Depsipeptide 25 ng/ml or Velcade 10 nM, 6-40 hours
Method: (§2) Level of apoptosis was evaluated by Annexin-V and 7-AAD staining (upper left chart). Expression of MHC class I was evaluated by flow cytometry by HLA-ABC for human RCC and H-2Dd/Kd for murine RCC (lower left chart). […] Cells were labeled with ^3H thymidine for analysis of proliferation (upper right chart).

[3] = system: MIC-A/B; details: cited from earlier work
[4] = system: RCC cell lines (JOHW, SAUJ, STAR, RENCA); experiment: apoptosis by Annexin-V and 7-AAD staining; assay type: cell-based, human and murine; details: Depsipeptide 25 ng/ml or Velcade 10 nM, 6-40 hours
Method: as §2

[5] = system: human RCC cell lines (JOHW, PORJC, SAUJ and STAR); assay type: cell-based
Method: (§3) Cells were then plated in a 96-well plate at 4,000 cell/well. Recombinant TRAIL [75-300 ng/ml] or recombinant Fas-ligand [12.5-100 ng/ml] was added to the cells and supernatant was harvested after 16 hours incubation. The level of lysis by TRAIL and Fas-ligand were calculated based on spontaneous and maximum ^51Cr release.

[6] = system: human and murine RCC; experiment: 3H thymidine proliferation; assay type: cell-based; details: various concentrations, 72 hours
Method: as §2

[7] = system: human RCC cell lines (JOHW, PORJC, SAUJ and STAR); assay type: cell-based; remark: listed apart in the source
Method: as §3

[8] = system: tumors; details: mouse, in vivo; cited from earlier work
[9] = system: MIC-A/B; experiment: MIC-A/B expression by flow cytometry; assay type: cell-based, human; details: Depsipeptide 25 ng/ml or Velcade 10 nM, 6-40 hours
[10] = system: human renal cell carcinoma (RCC) cell lines JOHW, SAUJ, STAR; experiment: NK cell susceptibility assay of pre-sensitized human RCC cell lines; assay type: cell-based; details: for autologous NK cell susceptibility of human RCC SAUJ or STAR (FIG. 11): 24 hours, 25 ng/ml Depsipeptide or 10 nM Velcade; for allogeneic NK cell susceptibility of human RCC (FIG. 9) / autologous NK cell susceptibility of human RCC (FIG. 10): JOHW, 10 nM Velcade or 25 ng/ml Depsipeptide, 40 hours, 4 hour assay
Method: Cells were thereafter labeled with ^51Cr for 1 hour and tested for susceptibility to allogeneic NK cell mediated lysis in a standard 4 hour assay.
Cells were thereafter labeled with ^51Cr for 1 hour and tested for susceptibility to autologous NK cell mediated lysis in a standard 4 hour assay.
as §1, with “assay. Autologous” for “assay.”, “peripheral blood” for “splenocytes from a B 10.d2 mouse”, “CD56” for “DX5”

[11] = system: HDAC; details: cited from earlier work
[12] = system: neoplastic cells; details: by reducing levels of c-FLIP; cited from earlier work
[13] = while retaining graft-versus-tumor effects; cited from earlier work

Structure (SMILES) | NK cell susceptibility of RENCA (FIG. 8) [1] | susceptibility of RENCA tumor cells to NK cell mediated lysis (FIG. 7) [1] | MHC Class I expression of RCC cell lines (FIG. 15) [2] | MIC-A/B upon treatment [3] | viability (apoptosis) of RCC cell lines (FIG. 15) [4] | cell lysis of presensitized RCC cells by Fas ligand (FIG. 14) [5] | proliferation of RCC cell lines (FIG. 15) [6] | cell lysis of presensitized RCC cells by TRAIL (FIG. 13) [7] | anti-tumor effects: cell growth and formation of tumors in mice models [8] | MIC-A/B expression of human RCC (FIG. 15) [9] | autologous NK cell susceptibility of human RCC SAUJ or STAR (FIG. 11) [10] | allogeneic NK cell susceptibility of human RCC (FIG. 9) [10] | autologous NK cell susceptibility of human RCC (FIG. 10) [10] | concentrations at which HDAC activity is inhibited [11] | sensitization of neoplastic cells to TRAIL-mediated apoptosis [12] | acute graft-versus-host disease [13]
C/C=C1\NC(=O)[C@H]2CSSCC/C=C/[C@H](CC(=O)N[C@H](C(C)C)C(=O)N2)OC(=O)[C@H](C(C)C)NC1=O [Depsipeptide] | enhanced NK cell susceptibility | more susceptible | no differences | induction | no differences | Increased cell lysis | no differences | Increased cell lysis | anti-tumor effects | no differences | enhanced autologous NK cell susceptibility | enhanced allogeneic NK cell susceptibility | enhanced autologous NK cell susceptibility |  |  | 
C/C=C1\NC(=O)[C@H]2CSSCC/C=C/[C@H](CC(=O)N[C@H](C(C)C)C(=O)N2)OC(=O)[C@H](C(C)C)NC1=O [FR901228] |  |  |  |  |  |  |  |  |  |  |  |  |  | micromolar concentrations |  | 
CC(C)C[C@H](NC(=O)[C@H](Cc1ccccc1)NC(=O)c1cnccn1)B(O)O [PS-341] |  |  |  |  |  |  |  |  |  |  |  |  |  |  | sensitizes | 
CC(C)C[C@H](NC(=O)[C@H](Cc1ccccc1)NC(=O)c1cnccn1)B(O)O [Velcade] | enhanced NK cell susceptibility | more susceptible | no differences |  | no differences |  | no differences |  |  |  | enhanced autologous NK cell susceptibility | enhanced allogeneic NK cell susceptibility | enhanced autologous NK cell susceptibility |  |  | inhibits
